Publication PMC5423977, “Safety, pharmacokinetics, and pharmacodynamics of BMS-986142, a novel reversible BTK inhibitor, in healthy participants” (European Journal of Clinical Pharmacology, 2017)

Tests used:
[1] = rats, 1-month GLP toxicology study; cited from earlier work
[2] = Stability of BMS-986142 in human EDTA plasma and processed samples (bioanalytical validation); format: physicochemical
Method: Method validation was carried out according to the Bristol-Myers Squibb Standard Operating Procedures (SOPs) for chromatographic method validation which conforms to the U.S. FDA’s Good Laboratory Practice (GLP) regulations (21 CFR part 58). The validation experiments included but were not limited to the determination of the lower limit of quantification (LLOQ), specificity, accuracy and precision, recovery, and analyte stability under the expected conditions of sample transfer, sample storage, and sample preparation. The LLOQ of the assay was determined to be 1 ng/mL using six different lots of plasma. No interference from the endogenous components and the internal standard was observed.
The accuracy and precision data for BMS-986142, based on the maximum value from all six QC levels, obtained using one-way ANOVA in Watson are listed in Table 1. The recovery of the analyte from human plasma during extraction was determined at 3 ng/mL and 800 ng/mL for BMS-986142, at 3 ng/mL, 30 ng/mL and 750 ng/mL for methotrexate and 7-hydroxymethotrexate, by comparing the response ratios in human plasma samples spiked with the analyte prior to extraction with those spiked post-extraction. The recovery for BMS-986142 is 89-90%. The recoveries for methotrexate and 7-hydroxymethotrexate are 88-94% and 83-88%, respectively. The room temperature, freeze-thaw, and frozen storage stability of BMS-986142 were evaluated in triplicate or quadruplicate using Low QC, High QC, and Dilution QC. The reinjection integrity was assessed by re-injecting an entire run. The deviations of the mean predicted concentrations of the test samples from the nominal concentrations were used as an indicator of the stability of the analyte.

[3] = 19.6 hours at RT in Plasma, Dilution QC 10000.00
[4] = 19.6 hours at RT in Plasma, High QC 800.00
[5] = 19.6 hours at RT in Plasma, Low QC 3.00
[6] = 96 h Processed sample stability, Dilution QC 10000.00
[7] = 96 h Processed sample stability, High QC 800.00
[8] = 96 h Processed sample stability, Low QC 3.00
[9] = 7 days at 5 °C Re-injection integrity, Dilution QC 10000.00
[10] = 7 days at 5 °C Re-injection integrity, High QC 800.00
[11] = 7 days at 5 °C Re-injection integrity, Low QC 3.00
[12] = 327 day at -20 °C in Plasma, Dilution QC 10000.00
[13] = 327 day at -20 °C in Plasma, High QC 800.00
[14] = 327 day at -20 °C in Plasma, Low QC 3.00
[15] = After 4 Freeze-Thaw Cycle in Plasma, Dilution QC 10000.00
[16] = After 4 Freeze-Thaw Cycle in Plasma, High QC 800.00
[17] = After 4 Freeze-Thaw Cycle in Plasma, Low QC 3.00

SMILES: Cc1c(-c2c(F)cc(C(N)=O)c3[nH]c4c(c23)CC[C@H](C(C)(C)O)C4)cccc1-n1c(=O)c2cccc(F)c2n(C)c1=O [BMS-986142, 6-fluoro-5-(R)-(3-(S)-(8-fluoro-1-methyl-2,4-dioxo-1,2-dihydroquinazolin-3(4H)-yl)-2-methylphenyl)-2-(S)-(2-hydroxypropan-2-yl)-2,3,4,9-tetrahydro-1H-carbazole-8-carboxamide]
- Steady-state exposure (AUC) at NOAEL [1]: 22,920 ng h/mL
- Stability, %Dev [2, 3]: 3.1%
- Stability, Mean Conc. [2, 3]: 10314.35 ng/mL
- Stability, %Dev [2, 4]: 2.0%
- Stability, Mean Conc. [2, 4]: 816.24 ng/mL
- Stability, %Dev [2, 5]: 8.3%
- Stability, Mean Conc. [2, 5]: 3.25 ng/mL
- Stability, %Dev [2, 6]: -3.3%
- Stability, Mean Conc. [2, 6]: 9666.77 ng/mL
- Stability, %Dev [2, 7]: 1.7%
- Stability, Mean Conc. [2, 7]: 813.52 ng/mL
- Stability, %Dev [2, 8]: 4.0%
- Stability, Mean Conc. [2, 8]: 3.12 ng/mL
- Stability, %Dev [2, 9]: 9.9%
- Stability, Mean Conc. [2, 9]: 10986.50 ng/mL
- Stability, %Dev [2, 10]: 4.7%
- Stability, Mean Conc. [2, 10]: 837.90 ng/mL
- Stability, %Dev [2, 11]: 2.7%
- Stability, Mean Conc. [2, 11]: 3.08 ng/mL
- Stability, %Dev [2, 12]: -4.2%
- Stability, Mean Conc. [2, 12]: 9578.40 ng/mL
- Stability, %Dev [2, 13]: 1.9%
- Stability, Mean Conc. [2, 13]: 815.36 ng/mL
- Stability, %Dev [2, 14]: 5.0%
- Stability, Mean Conc. [2, 14]: 3.15 ng/mL
- Stability, %Dev [2, 15]: -7.6%
- Stability, Mean Conc. [2, 15]: 9241.55 ng/mL
- Stability, %Dev [2, 16]: -5.9%
- Stability, Mean Conc. [2, 16]: 752.66 ng/mL
- Stability, %Dev [2, 17]: -6.3%
- Stability, Mean Conc. [2, 17]: 2.81 ng/mL
